From ChEMBL document CHEMBL1137571 (J Med Chem, 2007) come the findings set out here.

For test [1], the target named is T1, Amine oxidase [flavin-containing] A (Homo sapiens, UniProt P21397).
T1 sequence (P21397 whole entry): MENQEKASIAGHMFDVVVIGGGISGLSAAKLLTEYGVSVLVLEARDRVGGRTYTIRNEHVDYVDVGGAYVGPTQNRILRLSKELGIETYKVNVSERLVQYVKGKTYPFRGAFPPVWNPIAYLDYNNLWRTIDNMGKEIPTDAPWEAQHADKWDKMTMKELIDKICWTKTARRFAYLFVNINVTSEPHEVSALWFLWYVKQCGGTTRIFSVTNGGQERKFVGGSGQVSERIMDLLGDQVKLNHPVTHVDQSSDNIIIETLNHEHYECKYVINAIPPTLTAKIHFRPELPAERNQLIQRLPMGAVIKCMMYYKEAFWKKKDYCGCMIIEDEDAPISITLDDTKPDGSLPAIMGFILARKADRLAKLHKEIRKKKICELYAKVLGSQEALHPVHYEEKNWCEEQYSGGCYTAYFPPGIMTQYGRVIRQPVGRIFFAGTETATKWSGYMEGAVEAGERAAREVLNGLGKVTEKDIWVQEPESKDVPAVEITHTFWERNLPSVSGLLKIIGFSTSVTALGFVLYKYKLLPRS
The test is described as follows: Inhibition of human recombinant MAOA expressed in Pichia pastoris.

Test [2] addresses T2, Amine oxidase [flavin-containing] B (Homo sapiens, UniProt P27338).
T2 sequence (P27338 whole entry): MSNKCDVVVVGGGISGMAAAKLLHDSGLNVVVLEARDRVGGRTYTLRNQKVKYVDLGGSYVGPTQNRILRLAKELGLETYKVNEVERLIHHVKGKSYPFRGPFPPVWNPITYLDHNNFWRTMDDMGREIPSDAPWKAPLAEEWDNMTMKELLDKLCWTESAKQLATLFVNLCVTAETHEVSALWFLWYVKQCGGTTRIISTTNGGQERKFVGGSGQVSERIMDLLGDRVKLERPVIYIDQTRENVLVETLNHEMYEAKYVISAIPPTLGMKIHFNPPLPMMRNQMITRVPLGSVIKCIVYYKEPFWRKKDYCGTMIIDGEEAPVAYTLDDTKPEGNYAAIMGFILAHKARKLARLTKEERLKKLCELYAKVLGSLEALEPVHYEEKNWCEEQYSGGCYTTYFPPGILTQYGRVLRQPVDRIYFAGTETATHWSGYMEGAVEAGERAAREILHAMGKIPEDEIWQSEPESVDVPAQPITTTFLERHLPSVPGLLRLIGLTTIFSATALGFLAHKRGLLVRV
The experiment in a line: Inhibition of human recombinant MAOB expressed in Pichia pastoris.

On to `CNCc1cc(=O)oc2cc(OCc3cccc(Cl)c3)ccc12`, for which the results for the Ki in test [1] and in test [2] were 15.7 µM and 0.1 µM, respectively.
The like results for `O=Cc1cc(=O)oc2cc(OCc3cccc(Cl)c3)ccc12` were, in that order, 11 µM and 0.4 µM.
